Results reported in patent publication US10947216B2, “Amide compounds and method for making and using” (Rigel Pharmaceuticals, Inc., priority 2016, dated 2021).
Where a name gives a salt, the structure may show the parent alone. Read-outs that look alike come from different tables or passages of the source.

Test system: IL-23p19
Assay: LPS Induced IL23p19 in THP-1 Cells (with IFNγ Primed) Assay
Format: cell-based, human
Conditions: IFNγ (50 ng/mL) primed, 1 hour compound pre-incubation, LPS 1 ug/mL 18 hours, 10 pt, read-out: IL23-p19 ELISA, THP1-IFNy, LPS, 10 pt EC50
Protocol: LPS Induced IL23p19 in THP-1 Cells (with IFNγ Primed) Assay
Method THP-1 Cells Stimulation:
On day 1, 50K/well THP-1 cells were seeded and primed with IFNγ (50 ng/mL) in 384-well plates for about 18 hours in RPMI media with 10% FBS. […] 50 μL/well 2× compound was added to 50 μL/well THP-1 cells (with IFNγ primed) in duplicate in 384 well tissue culture plates. […] Day 3, after stimulation for 18 hours at 37° C., 5% CO2, the assay plate was centrifuged and 70 μL/well supernatant was harvested. IL-23p19 protein in 70 μL/well of supernatant was measured by sandwich ELISA, and 25 μl/well Cell Titer Glo reagent was added to the remaining cells to measure compound toxicity.
Human IL-23p19 Sandwich ELISA:
Maxisorp immuno ELISA plates were pre-coated with 25 μL/well of anti-IL-23p19 capture antibody (2.5 ug/mL) in PBS overnight at room temperature. After washing with 1×PBST, the plates were blocked using 100 μL/well of 1% BSA in PBS for 2 hours at room temperature. The plates were washed three times with 1×PBST and 70 μL/well supernatant were added. The plates were incubated at room temperature for 2 hours with shaking and washed three times with 1×PBST. 25 μL/well of biotin labeled anti-IL-12(p40/p70) detection antibody (100 ng/mL) in PBS with 1% BSA was added and the plates were incubated at room temperature for 2 hours with shaking. After washing three times with 1×PBST, 25 μL/well of streptavidin-HRP (1:200) in PBS with 1% BSA was added and the plates were incubated at room temperature for 20 minutes with shaking. The plates were washed three times with 1×PBST and 25 μL/well of Super Signal ELISA Pico Chemiluminescent Substrate were added. The plates were read with a luminometer, and the chemiluminescence values were entered into Athena (Rigel) for curve fitting, EC50 calculation, and database storage.

[1] = Homo sapiens, THP-1, THP-1 cells

EC50 (THP-1 cells, dihydrochloride) | EC50 [1] | Compound
27.9 µM | – | Cc1cncc(-c2cccc(C(=O)Nc3cn(C)nc3-c3ccc(N4CCOCC4)cn3)n2)c1 [Compound I-176, 5′-methyl-N-(1-methyl-3-(5-morpholinopyridin-2-yl)-1H-pyrazol-4-yl)-[2,3′-bipyridine]-6-carboxamide dihydrochloride]
– | 26.6 µM | Cn1cc(NC(=O)c2cccc(C3CCNCC3)n2)c(-c2ccccn2)n1 [Compound I-63, N-(1-methyl-3-(pyridin-2-yl)-1H-pyrazol-4-yl)-6-(piperidin-4-yl)picolinamide]
– | 15.9 µM | Cc1cncc(-c2cccc(C(=O)Nc3cn(C)nc3N3CCCC3)n2)c1 [Compound I-75, 5′-methyl-N-(1-methyl-3-(pyrrolidin-1-yl)-1H-pyrazol-4-yl)-[2,3′-bipyridine]-6-carboxamide]
– | 5.44 µM | Cc1ccc(-c2cccc(C(=O)Nc3cn(C)nc3-c3ccccn3)n2)cc1 [Compound I-50, N-(1-methyl-3-(pyridin-2-yl)-1H-pyrazol-4-yl)-6-(p-tolyl)picolinamide]
– | 10.8 µM | Cn1cc(NC(=O)c2cncc(-c3cnn(CC4CC4)c3)c2)c(-c2ccccn2)n1 [Compound I-109, 5-(1-(cyclopropylmethyl)-1H-pyrazol-4-yl)-N-(1-methyl-3-(pyridin-2-yl)-1H-pyrazol-4-yl)nicotinamide]
– | 22.3 µM | Cn1cc(NC(=O)c2cccc(C3=CCN(C(=O)OC(C)(C)C)CC3)n2)c(-c2ccccn2)n1 [Compound I-61, tert-butyl 6-((1-methyl-3-(pyridin-2-yl)-1H-pyrazol-4-yl)carbamoyl)-3′,6′-dihydro-[2,4′-bipyridine]-1′(2′H)-carboxylate]
– | 101 µM | Cn1cc(NC(=O)c2cccc(-c3cncc(OCC(F)(F)F)c3)n2)c(-c2ccccn2)n1 [Compound I-24, N-(1-methyl-3-(pyridin-2-yl)-1H-pyrazol-4-yl)-5′-(2,2,2-trifluoroethoxy)-[2,3′-bipyridine]-6-carboxamide]
– | 0.444 µM | Cc1cncc(-c2cccc(C(=O)Nc3cn(CCN4CCOCC4)nc3-c3ccccn3)n2)c1 [Compound I-84, 5′-methyl-N-(1-(2-morpholinoethyl)-3-(pyridin-2-yl)-1H-pyrazol-4-yl)-[2,3′-bipyridine]-6-carboxamide]
– | 11.5 µM | COCCOCCn1cc(NC(=O)c2cccc(-c3ccncc3F)n2)c(-c2ccccn2)n1 [Compound I-144, 3′-fluoro-N-(1-(2-(2-methoxyethoxy)ethyl)-3-(pyridin-2-yl)-1H-pyrazol-4-yl)-[2,4′-bipyridine]-6-carboxamide formate]
– | 655 µM | Cn1cc(NC(=O)c2cccc(-c3ccc[nH]3)n2)c(-c2ccccn2)n1 [Compound I-10, N-(1-methyl-3-(pyridin-2-yl)-1H-pyrazol-4-yl)-6-(1H-pyrrol-2-yl)picolinamide]
– | 398 µM | COc1cc(-c2cccc(C(=O)Nc3cn(C)nc3-c3ccccn3)n2)ccn1 [Compound I-21, 2′-methoxy-N-(1-methyl-3-(pyridin-2-yl)-1H-pyrazol-4-yl)-[2,4′-bipyridine]-6-carboxamide]
– | 59.1 µM | COc1cccc(-c2cccc(C(=O)Nc3cn(C)nc3-c3ccccn3)n2)c1 [Compound I-51, 6-(3-methoxyphenyl)-N-(1-methyl-3-(pyridin-2-yl)-1H-pyrazol-4-yl)picolinamide]
– | 1.53 µM | O=C(Nc1cn(C2CCOCC2)nc1-c1ccccn1)c1cccc(-c2cn[nH]c2)n1 [Compound I-165, 6-(1H-pyrazol-4-yl)-N-(3-(pyridin-2-yl)-1-(tetrahydro-2H-pyran-4-yl)-1H-pyrazol-4-yl)picolinamide]
– | 40.1 µM | Cn1cc(NC(=O)c2cccc(-c3cncnc3)n2)c(-c2ccccn2)n1 [Compound I-5, N-(1-methyl-3-(pyridin-2-yl)-1H-pyrazol-4-yl)-6-(pyrimidin-5-yl)picolinamide]
– | 25.5 µM | Cn1cc(NC(=O)c2cccc(-c3ccnc(C#N)c3)n2)c(-c2ccccn2)n1 [Compound I-42, 2′-cyano-N-(1-methyl-3-(pyridin-2-yl)-1H-pyrazol-4-yl)-[2,4′-bipyridine]-6-carboxamide]
– | 3.58 µM | COCCn1cc(NC(=O)c2cccc(-c3ccncc3)n2)c(-c2ccccn2)n1 [Compound I-107, N-(1-(2-methoxyethyl)-3-(pyridin-2-yl)-1H-pyrazol-4-yl)-[2,4′-bipyridine]-6-carboxamide formate]
– | 56.9 µM | COCCOCCn1cc(NC(=O)c2cccc(-c3ccncc3C)n2)c(-c2ccccn2)n1 [Compound I-145, N-(1-(2-(2-methoxyethoxy)ethyl)-3-(pyridin-2-yl)-1H-pyrazol-4-yl)-3′-methyl-[2,4′-bipyridine]-6-carboxamide formate]
– | 3.35 µM | Cc1cncc(-c2cccc(C(=O)Nc3cn(C(CO)CO)nc3-c3ccccn3)n2)c1 [Compound I-126, N-(1-(1,3-dihydroxypropan-2-yl)-3-(pyridin-2-yl)-1H-pyrazol-4-yl)-5′-methyl-[2,3′-bipyridine]-6-carboxamide]
